From patent publication US20260083865A1, “PROSTATE SPECIFIC MEMBRANE ANTIGEN (PSMA) LIGANDS AND USE THEREOF” (priority 2022, published 2026)
Read-outs that look alike come from different tables or passages of the source. Numbered stars: 1 amine (or outer) side, 2 acyl side, 3 side chain; on linkers, the order of the positions; unused ones are H or OH. Bridge positions count the residues as written; N and C are the ends. Square brackets hold non-standard residues; d marks the D form. Peptide text beside a SMILES is read from it. * marks the point of attachment. DOTA = O=C(O)CN1CCN(CC(=O)O)CCN(CC(=O)*)CCN(CC(=O)O)CC1; Phe(3,4-Cl2) = N[C@@H](Cc1ccc(Cl)c(Cl)c1)C(=O)O; Phe(3-CF3) = N[C@@H](Cc1cccc(C(F)(F)F)c1)C(=O)O; Phe(4-Cl) = N[C@@H](Cc1ccc(Cl)cc1)C(=O)O; Phe(3-F) = N[C@@H](Cc1cccc(F)c1)C(=O)O; Arg(Me) = CNC(=N)NCCC[C@H](N)C(=O)O; αMeF = C[C@](N)(Cc1ccccc1)C(=O)O; X1 = O=C(CC1CCN([*:1])CC1)[*:2]; Cit = NC(=O)NCCC[C@H](N)C(=O)O; Lys(Me) = CNCCCC[C@H](N)C(=O)O; Tle = CC(C)(C)[C@H](N)C(=O)O; Propanoyl(3-OH) = O=C(CCO)*; Nle = CCCC[C@H](N)C(=O)O; Aib = CC(C)(N)C(=O)O; Guanidino = N=C(N)N*; Bn = c1ccc(C*)cc1; βAla = NCCC(=O)O

Legend:
[1] = target: T1, PSMA-expressing C4-2 cells (Homo sapiens, UniProt Q04609); assay: FACS binding assay (competition with 50 nM PSM-0183); conditions: read-out: pIC50 [C4-2] CAT (converted)
T1 construct: PSMA-expressing C4-2 cells (ATCC, Cat. No. CRL-3314) were cultured in RPMI-1640; host or cells: C4-2 cells
Procedure, shortened: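 Competition format: fluorescent tracer PSM-0183 (50 nM) displaced from PSMA on C4-2 cells by a test compound titration over 1 h at 4 °C. Bound tracer was quantified as flow-cytometric AF488 median fluorescence after washing. Four-parameter logistic fits of MFI data gave IC50 and pIC50.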

[2] = target: T2, Fc-fusion protein of human PSMA (hPSMA-Fc) (Homo sapiens, UniProt Q04609); assay: Surface plasmon resonance assay (Biacore T200, single cycle kinetic); format: binding; conditions: read-out: pKD CAT (converted)
T2 construct: purchased Acro Biosystems PSA-H5264
Procedure, shortened: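 KD, expressed as pKD, came from 1:1 Langmuir fits of reference- and buffer-blank-subtracted SPR data. The runs were single-cycle kinetics at 25° C in HBST/0.1% DMSO over human PSMA-Fc, captured to ~1000 RU on a peptide-coated CM5 surface and regenerated with 10 mM glycine pH 1.5.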

[3] = FACS binding, C4-2 cells, competition with 50 nM PSM-0183, category
[4] = SPR, hPSMA-Fc, single cycle kinetic, 25° C., category
[5] = FACS binding, PSMA-expressing C4-2 cells, pIC50 category
[6] = PSMA SPR assay, hPSMA-Fc, 25° C., pKD category
[7] = FACS binding, C4-2 cells, category
[8] = pIC50 category of FACS binding, C4-2 cells
[9] = pKD category for PSMA SPR activity assay, hPSMA-Fc, 25° C.

T2 sequence (Q04609 44-750 limits assumed): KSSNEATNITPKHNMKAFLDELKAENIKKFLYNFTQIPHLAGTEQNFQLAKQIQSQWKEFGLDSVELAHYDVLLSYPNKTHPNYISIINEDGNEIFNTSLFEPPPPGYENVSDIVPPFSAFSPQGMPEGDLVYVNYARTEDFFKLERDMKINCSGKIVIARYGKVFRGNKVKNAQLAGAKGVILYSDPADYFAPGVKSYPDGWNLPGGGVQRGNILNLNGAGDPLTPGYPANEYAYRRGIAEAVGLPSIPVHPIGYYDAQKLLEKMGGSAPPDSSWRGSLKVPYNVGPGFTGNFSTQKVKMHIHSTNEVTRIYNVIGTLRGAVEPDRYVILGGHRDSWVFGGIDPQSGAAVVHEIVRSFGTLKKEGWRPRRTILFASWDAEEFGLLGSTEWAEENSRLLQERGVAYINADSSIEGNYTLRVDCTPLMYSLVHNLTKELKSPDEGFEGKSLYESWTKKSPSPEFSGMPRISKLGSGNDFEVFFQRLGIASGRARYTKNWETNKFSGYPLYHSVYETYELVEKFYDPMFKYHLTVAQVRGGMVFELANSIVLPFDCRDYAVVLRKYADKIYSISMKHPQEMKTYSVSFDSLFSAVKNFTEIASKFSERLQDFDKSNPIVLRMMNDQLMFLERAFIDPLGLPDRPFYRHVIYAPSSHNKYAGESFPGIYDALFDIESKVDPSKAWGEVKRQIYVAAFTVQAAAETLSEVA
T1 sequence (Q04609 whole entry): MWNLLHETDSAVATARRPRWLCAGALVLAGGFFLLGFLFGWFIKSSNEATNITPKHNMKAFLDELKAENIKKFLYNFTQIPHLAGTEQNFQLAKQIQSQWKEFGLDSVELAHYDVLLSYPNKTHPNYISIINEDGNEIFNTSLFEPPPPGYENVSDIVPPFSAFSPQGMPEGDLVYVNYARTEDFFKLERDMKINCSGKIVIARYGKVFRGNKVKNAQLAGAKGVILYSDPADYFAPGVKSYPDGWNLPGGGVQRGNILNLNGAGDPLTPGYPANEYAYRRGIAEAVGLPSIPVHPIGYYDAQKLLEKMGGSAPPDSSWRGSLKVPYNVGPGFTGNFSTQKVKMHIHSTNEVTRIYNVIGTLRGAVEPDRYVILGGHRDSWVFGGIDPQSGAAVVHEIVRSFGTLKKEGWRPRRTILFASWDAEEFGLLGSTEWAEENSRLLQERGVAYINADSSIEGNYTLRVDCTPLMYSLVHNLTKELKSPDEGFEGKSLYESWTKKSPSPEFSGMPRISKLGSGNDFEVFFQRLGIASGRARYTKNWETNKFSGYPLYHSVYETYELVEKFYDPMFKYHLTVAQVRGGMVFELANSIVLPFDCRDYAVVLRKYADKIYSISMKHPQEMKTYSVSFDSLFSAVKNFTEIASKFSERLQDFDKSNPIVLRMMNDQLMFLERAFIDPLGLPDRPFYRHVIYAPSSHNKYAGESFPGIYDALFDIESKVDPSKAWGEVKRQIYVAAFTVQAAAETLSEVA

CCCC[C@@H]1NC(=O)[C@@H](NC(=O)[C@H](Cc2ccc(Cl)cc2)NC(=O)C(C)(C)NC(=O)[C@@H](NC(C)=O)[C@@H](C)O)CSSC[C@@H](C(=O)N[C@H](C(=O)N[C@H](C(N)=O)[C@@H](C)O)C(C)(C)C)NC(=O)[C@H](CC(N)=O)NC(=O)C(C)(C)NC(=O)[C@H](CCC(=O)NC(=N)N)NC1=O [PSM-0236, Ac-Thr-Aib-Pcf-[Cys-Nle-Gln(Gu)-Aib-Asn-Cys]-Tle-Thr-NH2] (Ac-T[Aib][Phe(4-Cl)]C[Nle]E(Guanidino)[Aib]NC[Tle]T-NH2; disulfide 4-9)
IC50 [1, 3]: < 200 nM
Kd [2, 4]: < 12.6 nM

C[C@@H](O)[C@H](NC(=O)[C@@H](NC(=O)[C@@H]1CSSC[C@H](NC(=O)[C@H](Cc2ccc(Cl)c(Cl)c2)NC(=O)C(C)(C)NC(=O)[C@@H](NC(=O)CC2CCN(C(=O)CN3CCN(CC(=O)O)CCN(CC(=O)O)CCN(CC(=O)O)CC3)CC2)[C@@H](C)O)C(=O)N[C@@H](CCCCN)C(=O)N[C@@H](CCCNC(N)=O)C(=O)NC(C)(C)C(=O)N[C@@H](CC(N)=O)C(=O)N1)C(C)(C)C)C(N)=O [PSM-0274, DOTA-Cmp-Thr-Aib-Eaa-[Cys-Lys-Cit-Aib-Asn-Cys]-Tle-Thr-NH2] ({DOTA}-[X1]T[Aib][Phe(3,4-Cl2)]CK[Cit][Aib]NC[Tle]T-NH2; disulfide 5-10)
IC50 [1, 5]: < 200 nM
Kd [2, 6]: 12.6 to 126 nM

CNCCCC[C@@H]1NC(=O)[C@@H](NC(=O)[C@H](Cc2ccc(Cl)cc2)NC(=O)C(C)(C)NC(=O)[C@@H](NC(=O)CC2CCN(C(=O)CN3CCN(CC(=O)O)CCN(CC(=O)O)CCN(CC(=O)O)CC3)CC2)[C@@H](C)O)CSSC[C@@H](C(=O)N[C@H](C(=O)NCCC(N)=O)C(C)(C)C)NC(=O)[C@H](CC(N)=O)NC(=O)C(C)(C)NC(=O)[C@H](CCCNC(=N)NC)NC1=O [PSM-606] ({DOTA}-[X1]T[Aib][Phe(4-Cl)]C[Lys(Me)][Arg(Me)][Aib]NC[Tle][βAla]-NH2; disulfide 5-10)
IC50 [1, 7]: < 200 nM
Kd ([2]; PSMA SPR assay, category): < 12.6 nM

CC(=O)N[C@H](C(=O)N[C@@H](C)C(=O)N[C@@](C)(Cc1ccccc1)C(=O)N[C@H]1CSSC[C@@H](C(=O)N[C@H](C(=O)N[C@H](C(N)=O)[C@@H](C)O)C(C)(C)C)NC(=O)[C@H](CC(N)=O)NC(=O)C(C)(C)NC(=O)[C@H](CCCNC(=N)N)NC(=O)[C@H](CCCCN)NC1=O)[C@@H](C)O [PSM-0414, Ac-Thr-Ala-Amf-[Cys-Lys-Arg-Aib-Asn-Cys]-Tle-Thr-NH2] (Ac-TA[αMeF]CKR[Aib]NC[Tle]T-NH2; disulfide 4-9)
IC50 [1, 8]: > 3160 nM
Kd [2, 9]: 12.6 to 126 nM

CCCC[C@H](NC(=O)[C@@H]1CSSC[C@H](NC(=O)[C@H](Cc2ccccc2)NC(=O)[C@H](C)NC(=O)[C@@H](NC(C)=O)[C@@H](C)O)C(=O)N[C@@H](CCCCN)C(=O)N[C@@H](C)C(=O)N[C@@H](C)C(=O)N[C@@H](CC(N)=O)C(=O)N1)C(=O)N[C@H](C(=O)N[C@@H](CC(=O)O)C(N)=O)[C@@H](C)O [PSM-0581, Ac-Thr-Ala-Phe-[Cys-Lys-Ala-Ala-Asn-Cys]-Nle-Thr-Asp-NH2] (Ac-TAFCKAANC[Nle]TD-NH2; disulfide 4-9)
IC50 [1, 7]: 1260 to 3160 nM
Kd ([2]; PSMA SPR assay, category): > 501 nM

CC(=O)N[C@H](C(=O)NC(C)(C)C(=O)N[C@@H](CSCc1ccccc1)C(=O)N[C@H]1CSSC[C@@H](C(=O)N[C@H](C(=O)N[C@H](C(N)=O)[C@@H](C)O)C(C)(C)C)NC(=O)[C@H](CC(N)=O)NC(=O)C(C)(C)NC(=O)[C@H](CCCNC(=N)N)NC(=O)[C@H](CCCCN)NC1=O)[C@@H](C)O [PSM-0441, Ac-Thr-Aib-Cys(Bzl)-[Cys-Lys-Arg-Aib-Asn-Cys]-Tle-Thr-NH2] (Ac-T[Aib]C(Bn)CKR[Aib]NC[Tle]T-NH2; disulfide 4-9)
IC50 [1, 8]: < 200 nM
Kd [2, 9]: 12.6 to 126 nM

CNCCCC[C@@H]1NC(=O)[C@@H](NC(=O)[C@H](Cc2ccc(Cl)cc2)NC(=O)C(C)(C)NC(=O)[C@@H](NC(=O)CC2CCN(C(=O)CN3CCN(CC(=O)O)CCN(CC(=O)O)CCN(CC(=O)O)CC3)CC2)[C@@H](C)O)CSSC[C@@H](C(=O)N[C@H](C(=O)N[C@H](C(N)=O)[C@@H](C)O)C(C)(C)C)NC(=O)[C@H](CC(N)=O)NC(=O)[C@@H](C)NC(=O)[C@H](CCCNC(=N)NC)NC1=O [PSM-0246, DOTA-Cmp-Thr-Aib-Pcf-[Cys-Lys(Me)-Arg(Me)-ala-Asn-Cys]-Tle-Thr-NH2] ({DOTA}-[X1]T[Aib][Phe(4-Cl)]C[Lys(Me)][Arg(Me)][dA]NC[Tle]T-NH2; disulfide 5-10)
IC50 [1, 3]: < 200 nM
Kd [2, 4]: < 12.6 nM

CC(=O)N[C@H](C(=O)NC(C)(C)C(=O)N[C@@H](Cc1cccc(C(F)(F)F)c1)C(=O)N[C@H]1CSSC[C@@H](C(=O)N[C@H](C(=O)N[C@H](C(N)=O)[C@@H](C)O)C(C)(C)C)NC(=O)[C@H](CC(N)=O)NC(=O)C(C)(C)NC(=O)[C@H](CCCNC(=N)N)NC(=O)[C@H](CCCCN)NC1=O)[C@@H](C)O [PSM-0264, Ac-Thr-Aib-Mtf-[Cys-Lys-Arg-Aib-Asn-Cys]-Tle-Thr-NH2] (Ac-T[Aib][Phe(3-CF3)]CKR[Aib]NC[Tle]T-NH2; disulfide 4-9)
IC50 [1, 3]: < 200 nM
Kd [2, 4]: < 12.6 nM

CC(=O)N[C@H](C(=O)NC(C)(C)C(=O)N[C@@H](Cc1cccc(F)c1)C(=O)N[C@H]1CSSC[C@@H](C(=O)N[C@H](C(=O)N[C@H](C(N)=O)[C@@H](C)O)C(C)(C)C)NC(=O)[C@H](CC(N)=O)NC(=O)C(C)(C)NC(=O)[C@H](CCCNC(=N)N)NC(=O)[C@H](CCCCN)NC1=O)[C@@H](C)O [PSM-0551, Ac-Thr-Aib-Mff-[Cys-Lys-Arg-Aib-Asn-Cys]-Tle-Thr-NH2] (Ac-T[Aib][Phe(3-F)]CKR[Aib]NC[Tle]T-NH2; disulfide 4-9)
IC50 [1, 8]: < 200 nM
Kd [2, 9]: < 12.6 nM

CC(=O)N[C@H](C(=O)NC(C)(C)C(=O)N[C@@H](Cc1ccc(Cl)cc1)C(=O)N[C@H]1CSSC[C@@H](C(=O)N[C@H](C(=O)NCCC(N)=O)C(C)(C)C)NC(=O)[C@H](CC(N)=O)NC(=O)C(C)(C)NC(=O)[C@H](CCCNC(=N)N)NC(=O)[C@H](CCCCN)NC1=O)[C@@H](C)O [PSM-0514, Ac-Thr-Aib-Pcf-[Cys-Lys-Arg-Aib-Asn-Cys]-Tle-Bal-NH2] (Ac-T[Aib][Phe(4-Cl)]CKR[Aib]NC[Tle][βAla]-NH2; disulfide 4-9)
IC50 [1, 8]: < 200 nM
Kd [2, 9]: < 12.6 nM

CC(=O)N[C@H](C(=O)NC(C)(C)C(=O)N[C@@H](Cc1ccccc1)C(=O)N[C@H]1CSSC[C@@H](C(=O)N[C@H](C(=O)N[C@H](C(=O)N[C@@H](CC(=O)O)C(N)=O)[C@@H](C)O)C(C)(C)C)NC(=O)[C@H](CC(N)=O)NC(=O)C(C)(C)NC(=O)[C@H](CCC(N)=O)NC(=O)[C@H](CCCCN)NC1=O)[C@@H](C)O [PSM-0334, Ac-Thr-Aib-Phe-[Cys-Lys-Gln-Aib-Asn-Cys]-Tle-Thr-Asp-NH2] (Ac-T[Aib]FCKQ[Aib]NC[Tle]TD-NH2; disulfide 4-9)
IC50 [1, 5]: < 200 nM
Kd [2, 6]: 12.6 to 126 nM

C[C@@H](O)[C@H](NC(=O)[C@@H](NC(=O)[C@@H]1CSSC[C@H](NC(=O)[C@H](Cc2ccccc2)NC(=O)C(C)(C)NC(=O)[C@@H](NC(=O)CCNC(=O)CN2CCN(CC(=O)O)CCN(CC(=O)O)CCN(CC(=O)O)CC2)[C@@H](C)O)C(=O)N[C@@H](CCCCN)C(=O)N[C@@H](CCCNC(=N)N)C(=O)NC(C)(C)C(=O)N[C@@H](CC(N)=O)C(=O)N1)C(C)(C)C)C(N)=O [PSM-0209, DOTA-Bal-Thr-Aib-Phe-[Cys-Lys-Arg-Aib-Asn-Cys]-Tle-Thr-NH2] ({DOTA-βAla}-T[Aib]FCKR[Aib]NC[Tle]T-NH2; disulfide 4-9)
IC50 [1, 3]: < 200 nM
Kd [2, 4]: < 12.6 nM

CCCC[C@H](NC(=O)[C@@H]1CSSC[C@H](NC(=O)[C@H](Cc2ccccc2)NC(=O)[C@H](C)NC(=O)[C@@H](NC(C)=O)[C@@H](C)O)C(=O)N[C@@H](C)C(=O)N[C@@H](CCCNC(=N)N)C(=O)N[C@@H](C)C(=O)N[C@@H](CC(N)=O)C(=O)N1)C(=O)N[C@H](C(=O)N[C@@H](CC(=O)O)C(N)=O)[C@@H](C)O [PSM-0475, Ac-Thr-Ala-Phe-[Cys-Ala-Arg-Ala-Ass-Cys]-Nle-Thr-Asp-NH2] (Ac-TAFCARANC[Nle]TD-NH2; disulfide 4-9)
IC50 [1, 8]: 1260 to 3160 nM
Kd [2, 9]: > 501 nM

C[C@@H](O)[C@H](NC(=O)[C@@H](NC(=O)[C@@H]1CSSC[C@H](NC(=O)[C@H](Cc2ccc(Cl)cc2)NC(=O)C(C)(C)NC(=O)CCO)C(=O)N[C@@H](CCCCN)C(=O)N[C@@H](CCCNC(=N)N)C(=O)NC(C)(C)C(=O)N[C@@H](CC(N)=O)C(=O)N1)C(C)(C)C)C(=O)N1CCC(CC(=O)N[C@H](CCCCNC(=O)CN2CCN(CC(=O)O)CCN(CC(=O)O)CCN(CC(=O)O)CC2)C(N)=O)CC1 [PSM-0509, HPA-Aib-Pcf-[Cys-Lys-Arg-Aib-Asn-Cys]-Tle-Thr-Cmp-lys(DOTA)-NH2] ({Propanoyl(3-OH)}-[Aib][Phe(4-Cl)]CKR[Aib]NC[Tle]T[X1][dK](DOTA)-NH2; disulfide 3-8)
IC50 [1, 8]: < 200 nM
Kd [2, 9]: < 12.6 nM
